This note sets out measurements from ChEMBL document CHEMBL1201862, “PubChem BioAssay data set” (2004).

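Each compound was tested at five concentrations against cells in 96-well plates for 48 hours. GI50 marks 50% less growth.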 The source made the active and inactive calls. No stated cut-off is given here; in the data, active = GI50 up to about 1.1 µM and inactive = higher.

Among the test systems are A498; DU-145; HCT-15; HOP-92; IGROV-1; KM12; MCF7; MDA-MB-435; NCI-H522; NCI/ADR-RES; SF-539; SK-MEL-28; SNB-19; SNB-75; T47D; K562; MOLT-4; RXF 393; UO-31; MDA-N.
Test in all cases: growth of human tumour cells (NCI), 48 h

Consider `Oc1[nH]c(Nc2ccc(Cl)cc2)nc2ncnc1-2`, for which the GI50 in the assay on A498 is > 100 µM (inactive); in the assay with DU-145 it was 70.1 µM (inactive); with HCT-15 it was above 100 µM; in the assay with HOP-92 it was 81.3 µM (inactive); with IGROV-1, > 100 µM (inactive); in the assay on KM12 it was > 100 µM (inactive). Moreover, the GI50 in the assay on MCF7 is > 100 µM (inactive); in the assay on MDA-MB-435, > 100 µM (inactive); in the assay with NCI-H522, 90.8 µM (inactive); in the assay with NCI/ADR-RES it was > 100 µM (inactive); with SF-539, > 100 µM (inactive); with SK-MEL-28 it was > 100 µM (inactive). For the same compound, the GI50 in the assay with SNB-19 is 33.1 µM (inactive); in the assay on SNB-75, 43.4 µM (inactive); in the assay on T47D, 61.7 µM (inactive).
Take `CC(C)OC(=O)/C=C/C(=O)O/C=C/[N+](=O)[O-]`: the GI50 in the assay with A498 is 14.1 µM (inactive); with DU-145, 30.4 µM (inactive); in the assay on HCT-15 it was 35 µM; in the assay with IGROV-1, 31.6 µM (inactive); with K562 it was 7.64 µM (inactive); in the assay on KM12, 21.5 µM (inactive). Moreover, the GI50 with MCF7 is 23 µM (inactive); with MDA-MB-435, 38.9 µM (inactive); in the assay on MOLT-4 it was 15.9 µM (inactive); with NCI/ADR-RES, 8.55 µM (inactive); in the assay on RXF 393, 18.3 µM (inactive); in the assay on SF-539, 37.1 µM (inactive). The GI50 was 26.7 µM (inactive) in the assay with SK-MEL-28, 31.7 µM (inactive) with SNB-19, 12.7 µM (inactive) with T47D and 36.1 µM (inactive) in the assay with UO-31.
As for `O=C(O)c1nc2ccc(C(F)(F)F)cc2nc1Nc1ccc(F)cc1`, the GI50 in the assay on A498 is 16.9 µM (inactive); with DU-145, 21.2 µM (inactive); in the assay on HCT-15 it was 20.7 µM; in the assay with IGROV-1, 20.7 µM (inactive); in the assay with K562, 11.2 µM (inactive); in the assay on KM12, 18.6 µM (inactive). In addition, the GI50 in the assay with MCF7 was 23 µM (inactive); with MDA-MB-435, 17.6 µM (inactive); in the assay with MDA-N it was 27.5 µM (inactive); with MOLT-4, 9.57 µM (inactive); with NCI-H522, 6.07 µM (inactive); in the assay on NCI/ADR-RES, 20.2 µM (inactive). Moreover, the GI50 in the assay with RXF 393 was 14.4 µM (inactive); in the assay on SK-MEL-28 it was 37.6 µM (inactive); with SNB-19, > 10 µM (inactive); in the assay on SNB-75, 23.3 µM (inactive); with UO-31, 12 µM (inactive).
With `O=C(Nc1cccc(NC(=O)c2cc(=O)c3ccccc3o2)n1)c1cc(=O)c2ccccc2o1`, the GI50 with A498 was 75.5 µM (inactive); with HCT-15, 4.06 µM; in the assay on HOP-92 it was 17.3 µM (inactive); in the assay on IGROV-1, 38.2 µM (inactive); in the assay with K562 it was 5.46 µM (inactive); in the assay on KM12, 17.9 µM (inactive). Besides, the GI50 was 49.4 µM (inactive) with MOLT-4; 15 µM (inactive) with NCI-H522; 20.8 µM (inactive) in the assay on RXF 393; 20.3 µM (inactive) in the assay on SF-539; 62.4 µM (inactive) in the assay with SK-MEL-28; 68.9 µM (inactive) in the assay with SNB-19. For the same compound, the figures for the GI50 in the assay on SNB-75 and in the assay with UO-31 were 38.8 µM (inactive) and 10.4 µM (inactive), respectively.
For `CS(=O)(=O)CSCSSCS(C)(=O)=O`, the GI50 with A498 is 88.9 µM (inactive); in the assay on HCT-15, 28 µM; with HOP-92, 27.7 µM (inactive); in the assay with IGROV-1 it was 51.8 µM (inactive); with K562, 23.8 µM (inactive); in the assay with KM12, 44.2 µM (inactive). Further, the GI50 with MOLT-4 was 25.5 µM (inactive); in the assay with NCI-H522, 14.9 µM (inactive); in the assay with RXF 393 it was 17.1 µM (inactive); in the assay with SF-539, 22 µM (inactive); with SK-MEL-28 it was 24.6 µM (inactive); in the assay with SNB-19 it was 74.3 µM (inactive). Besides, the GI50 in the assay with SNB-75 was > 63.4 µM (inactive); with UO-31 it was 32.1 µM (inactive).
With `O=c1cc(CC(O)(C(F)(F)Cl)C(F)(F)Cl)[nH]n1-c1ccccc1`, the GI50 with A498 is > 100 µM (inactive); with DU-145, > 100 µM (inactive); in the assay on HCT-15 it was above 100 µM; with HOP-92, 20.7 µM (inactive); in the assay with IGROV-1, > 100 µM (inactive); in the assay on K562, 92.3 µM (inactive). Moreover, the GI50 in the assay on KM12, in the assay on MCF7, in the assay on MDA-MB-435, in the assay on MOLT-4, in the assay with NCI/ADR-RES and with RXF 393 was > 100 µM (inactive) throughout. The GI50 with SF-539 was > 100 µM (inactive); with SK-MEL-28, > 100 µM (inactive); with SNB-19, > 100 µM (inactive); in the assay on SNB-75, > 100 µM (inactive); with T47D, 52.6 µM (inactive); in the assay on UO-31 it was 78.9 µM (inactive).
Regarding `Oc1ccc(O)c(-n2cccn2)c1`, the GI50 in the assay on A498 was > 100 µM (inactive); with HCT-15, above 100 µM; with HOP-92 it was 45.9 µM (inactive); in the assay on IGROV-1, > 100 µM (inactive); with K562 it was 24.2 µM (inactive); in the assay on KM12, > 100 µM (inactive). Besides, the GI50 was 21.9 µM (inactive) in the assay on MOLT-4; 16.6 µM (inactive) in the assay with NCI-H522; 38.1 µM (inactive) with RXF 393; > 100 µM (inactive) in the assay on SF-539; > 100 µM (inactive) with SK-MEL-28; > 100 µM (inactive) in the assay with SNB-19. Moreover, the figures for the GI50 in the assay with SNB-75 and in the assay with UO-31 were > 100 µM (inactive) and 56.4 µM (inactive), respectively.
On to `O=C(CCc1nnc2s/c(=C\c3ccc([N+](=O)[O-])cc3)c(=O)n12)Nc1ccc(Cl)c(Cl)c1`, for which the GI50 with A498 was 85.3 µM (inactive); with HCT-15 it was 24.7 µM; in the assay with HOP-92 it was 38.6 µM (inactive); in the assay on IGROV-1, 24.7 µM (inactive); with K562 it was 20.3 µM (inactive); with KM12 it was 16 µM (inactive). Besides, the GI50 in the assay on MOLT-4 was 25.1 µM (inactive); in the assay on NCI-H522 it was 17.3 µM (inactive); with RXF 393 it was 18.2 µM (inactive); in the assay with SF-539, 17.9 µM (inactive); in the assay with SK-MEL-28, 21.8 µM (inactive); in the assay on SNB-19, 72.9 µM (inactive). Also, the values for the GI50 with SNB-75 and with UO-31 were 10.4 µM (inactive) and 41.5 µM (inactive), respectively.
Take `O=C(CCc1ccccc1)ON1C(=S)C(c2ccccc2)(c2ccccc2)N=C1Sc1ccccc1`: the GI50 is > 100 µM (inactive) in the assay on A498; 58.2 µM (inactive) in the assay with DU-145; 24.9 µM in the assay with HCT-15; > 100 µM (inactive) in the assay on HOP-92; 6.53 µM (inactive) in the assay with IGROV-1; 36.1 µM (inactive) in the assay on K562. In addition, the GI50 was 32.6 µM (inactive) with KM12; 33.7 µM (inactive) with MCF7; 4 µM (inactive) with MOLT-4; 33.7 µM (inactive) with NCI/ADR-RES; > 100 µM (inactive) in the assay with RXF 393; 44.6 µM (inactive) in the assay on SF-539. For the same compound, the GI50 in the assay with SNB-19 is 52.7 µM (inactive); with SNB-75, 37.9 µM (inactive); in the assay on T47D, 59.4 µM (inactive); with UO-31, 60.3 µM (inactive).
As to `CCOC(=O)CCN1C(=O)c2ccc(NC(=O)C(=O)O)cc2S1(=O)=O`, the GI50 in the assay with A498 is > 100 µM (inactive); with DU-145, > 100 µM (inactive); in the assay with HCT-15, above 100 µM; with HOP-92, > 100 µM (inactive); in the assay with IGROV-1 it was > 100 µM (inactive); with K562, > 100 µM (inactive). For the same compound, the GI50 in the assay on KM12, with MCF7, with MDA-MB-435, in the assay on MDA-N, in the assay on MOLT-4 and with NCI-H522 was > 100 µM (inactive) each time. The GI50 with NCI/ADR-RES, in the assay on SF-539, in the assay with SK-MEL-28, in the assay with SNB-19, with SNB-75 and with UO-31 was > 100 µM (inactive) in each case.
In the case of `CC(C)=CCN1c2ccccc2NC(=O)CC1C` (centres undefined), the GI50 with A498 is 83.8 µM (inactive); in the assay on DU-145, > 100 µM (inactive); with HCT-15, above 100 µM; in the assay on HOP-92 it was 38.7 µM (inactive); in the assay with IGROV-1 it was > 100 µM (inactive); in the assay on K562, > 100 µM (inactive). Moreover, the GI50 was > 100 µM (inactive) with KM12; > 100 µM (inactive) in the assay on MCF7; > 100 µM (inactive) with MDA-MB-435; > 100 µM (inactive) in the assay with MOLT-4; > 100 µM (inactive) in the assay with NCI-H522; 49.8 µM (inactive) in the assay with NCI/ADR-RES. The GI50 in the assay with RXF 393 was > 100 µM (inactive); with SF-539 it was > 100 µM (inactive); in the assay on SK-MEL-28, > 100 µM (inactive); in the assay with SNB-19, > 100 µM (inactive); in the assay on T47D it was 84.7 µM (inactive); in the assay with UO-31 it was 83.4 µM (inactive).
For the compound `COc1cc(/C=C/C(=O)CC(=O)/C=C/c2ccc(OC(=O)CCCCC3CCSS3)c(OC)c2)ccc1OC(=O)CCCCC1CCSS1` (centres undefined), the GI50 with DU-145 is > 100 µM (inactive); with HCT-15, above 100 µM; in the assay on IGROV-1, > 100 µM (inactive); in the assay with K562, > 100 µM (inactive); with KM12, > 100 µM (inactive); in the assay on MCF7, > 100 µM (inactive). The GI50 in the assay on MDA-MB-435, in the assay with MDA-N, in the assay with MOLT-4, in the assay on NCI-H522, in the assay on NCI/ADR-RES and with RXF 393 was > 100 µM (inactive) throughout. Also, the GI50 with SF-539, with SK-MEL-28, in the assay with SNB-19, with SNB-75 and in the assay with UO-31 was > 100 µM (inactive) throughout.
For the compound `CCC(=O)OC1=C(c2ccccc2)Sc2ccc(Cl)cc2-n2cccc21`, the GI50 was > 10 µM (inactive) with DU-145; 4.69 µM in the assay on HCT-15; 5.78 µM (inactive) in the assay on HOP-92; > 10 µM (inactive) in the assay on IGROV-1; 5.75 µM (inactive) in the assay on K562; 9.04 µM (inactive) with KM12. The GI50 in the assay with MCF7 was 7.21 µM (inactive); with MDA-MB-435, 2.22 µM (inactive); with MOLT-4, 7.71 µM (inactive); in the assay with RXF 393 it was 3.24 µM (inactive); in the assay on SK-MEL-28 it was > 10 µM (inactive); with SNB-75, > 10 µM (inactive). Moreover, the GI50 in the assay on T47D was > 10 µM (inactive).
